# Like-named read-outs stand apart in the source and are kept apart here.
# Key:
# MALCYP6P9a = MALCYP6P9a (Anopheles funestus, UniProt B5AII6); test: Pyrethroid depletion (metabolism) assay with recombinant enzyme; format: biochemical; conditions: 20μM insecticide, 1 hour, vs -NADPH
# Method: (§5) Membrane expressing recombinant CYP6P9a/-b and AgCPR, and reconstituted cytochrome b5 were added to the side of the tube and pre-incubated for 5 minutes at 30°C, with shaking at 1,200 rpm to activate the membrane. 20μM of test insecticide was then added into the final volume of 0.2ml (~2.5% v/v methanol), and reaction started by vortexing at 1,200 rpm and 30°C for 1 hour. Reactions were quenched with 0.1ml ice-cold methanol and incubated for 5 more minutes. Tubes were then centrifuged at 16,000 rpm and 4°C for 15 minutes, and 150μl of supernatant transferred into HPLC vials for analysis. Reactions were carried out in triplicates with experimental samples (+NADPH) and negative controls (-NADPH). 100μl of sample was loaded onto an isocratic mobile phase (90:10 v/v methanol to water) with a flow rate of 1ml/min, monitoring wavelength of 226nm and peaks separated with a 250mm C18 column (Acclaim 120, Dionex) on Agilent 1260 Infinity at 23°C. Enzyme activity was calculated as percentage depletion (the difference in the amount of insecticide(s) remaining in the +NADPH tubes compared with the–NADPH) and a t-test used for statistical analysis.
# BENCYP6P9b [1] = target: T1, BENCYP6P9b (Anopheles funestus, UniProt A0A0S1S7Y0); test: as above; format: biochemical; conditions: 20μM insecticide, 1 hour, vs -NADPH
# Method: (§6) To establish whether allelic variation in CYP6P9a and CYP6P9b impact their metabolic activities toward insecticides, pyrethroids were screened with the recombinant enzymes from these genes. […] Membrane expressing recombinant CYP6P9a/-b and AgCPR, and reconstituted cytochrome b5 were added to the side of the tube and pre-incubated for 5 minutes at 30°C, with shaking at 1,200 rpm to activate the membrane. 20μM of test insecticide was then added into the final volume of 0.2ml (~2.5% v/v methanol), and reaction started by vortexing at 1,200 rpm and 30°C for 1 hour. Reactions were quenched with 0.1ml ice-cold methanol and incubated for 5 more minutes. Tubes were then centrifuged at 16,000 rpm and 4°C for 15 minutes, and 150μl of supernatant transferred into HPLC vials for analysis. Reactions were carried out in triplicates with experimental samples (+NADPH) and negative controls (-NADPH). 100μl of sample was loaded onto an isocratic mobile phase (90:10 v/v methanol to water) with a flow rate of 1ml/min, monitoring wavelength of 226nm and peaks separated with a 250mm C18 column (Acclaim 120, Dionex) on Agilent 1260 Infinity at 23°C. Enzyme activity was calculated as percentage depletion (the difference in the amount of insecticide(s) remaining in the +NADPH tubes compared with the–NADPH) and a t-test used for statistical analysis.
# FANGCYP6P9a [2] = target: T2, FANGCYP6P9a (Anopheles funestus, UniProt K7Z0P3); test: as above; format: biochemical; conditions: 20μM insecticide, 1 hour, vs -NADPH
# UGANCYP6P9b [3] = target: T3, UGANCYP6P9b (Anopheles funestus, UniProt A0A0S1S7Y0); test: as above; format: biochemical; conditions: 20μM insecticide, 1 hour, vs -NADPH
# FANGCYP6P9b [4] = target: T4, FANGCYP6P9b (Anopheles funestus, UniProt A0A0S1RZ61); test: as above; format: biochemical; conditions: 20μM insecticide, 1 hour, vs -NADPH
# Method: as §6
# BENCYP6P9a [5] = target: T5, BENCYP6P9a (Anopheles funestus, UniProt A0A0S1RZ75); test: as above; format: biochemical; conditions: 20μM insecticide, 1 hour, vs -NADPH
# Method: as §5
# MALCYP6P9b [6] = target: T6, MALCYP6P9b (Anopheles funestus, UniProt B5AII7); test: as above; format: biochemical; conditions: 20μM insecticide, 1 hour, vs -NADPH
# Method: as §5
# UGANCYP6P9a = UGANCYP6P9a (Anopheles funestus, UniProt B5AII6); test: as above; format: biochemical; conditions: 20μM insecticide, 1 hour, vs -NADPH
# Method: as §5
# UGANCYP6P9b [7] = target: T3, UGANCYP6P9b; test: Fluorogenic probe O-dealkylation, initial testing; format: biochemical; conditions: UGANCYP6P9b vs UGANCYP6P9a; 1μM probe
# Method: Four probes: 7-ethoxyresurofin (7-ER), 7-ethoxy-4-trifluoromethylcoumarin (7-EFC), 7-methoxy-4-trifluoromethylcoumarin (MFC) and diethoxyfluorescein (DEF) were initially tested with the various recombinant CYP6P9a and CYP6P9b proteins. In a total volume of 225μl containing ~10pmol P450, buffered with 50mM potassium phosphate buffer (KPi at pH 7.4 with 5mM MgCl2), 1μM probe substrate was added. Membranes were activated for 5 minutes at 37°C in fluorescence spectrophotometer Infinite M200 (TECAN) before 25μl NADPH regeneration buffer (1mM glucose-6-phosphate (G6P), 0.25mM MgCl2, 0.1mM NADP and 1U/ml glucose-6-phosphate dehydrogenase (G6PDH) prepared in KPi pH 7.4) was added. All reactions were conducted in three replicates with negative control (–NADPH) devoid of the regeneration buffer. […]. Results were analysed using Magellan v6.2 software.
# CYP1A2 Glu^318Asp = test system: CYP1A2 Glu^318Asp; set-up: method as in PMID 7910007; conditions: human CYP1A2 ref [37]; cited from earlier work
# UGANCYP6P9b [8] = target: T3, UGANCYP6P9b; test: Inhibition of DEF dealkylation by insecticides (IC50); format: biochemical; conditions: compared with averagely 10μM for the other proteins
# Method: (§1) To further assess differences in the degree of binding of the various recombinant proteins to insecticides from different classes, inhibition assay was conducted with DEF and ten insecticides (inhibitors). The potent P450s inhibitor miconazole was utilised as a positive control inhibitor. IC50 determination was conducted as described in previous studies. […]. The 96 well-plate was pre-incubated for 5 minutes at 37°C and then 25μl regeneration buffer (7.8mg glucose-6-phosphate (G6P), 0.25mM MgCl2, 1.7mg NADP, 6U/ml glucose-6-phosphate dehydrogenase and 2% w/v NaHCO3) incorporated. Fluorescence was monitored for 21 cycles at interval of 1 minute with shaking at every step. Results were analysed using Magellan v6.2 software and inhibition at each inhibitor concentration and incubation time calculated as residual control activity towards DEF.
# CYP6P9a/CYP6P9b = test: in vitro; format: biochemical, Anopheles funestus; conditions: inhibition of DEF dealkylation; MALCYP6P9a, BENCYP6P9a, MALCYP6P9b, UGANCYP6P9b; DDT value for all proteins excepting UGANCYP6P9b
# Method: as §1
# [9] = test system: CYP6P9a/CYP6P9b (MALCYP6P9a, BENCYP6P9a, MALCYP6P9b, UGANCYP6P9b); test: in vitro; format: biochemical, Anopheles funestus; conditions: Anopheles funestus, pH 7.4, inhibition of DEF dealkylation, DDT value for all proteins excepting UGANCYP6P9b
# Method: as §1
# CYP6Z2 = conditions: cited from earlier work
# CYP6Z8 = test system: CYP6Z8; set-up: method as in ref [8] (S1 Text); conditions: cited from earlier work; for Kcat: Ae. aegypti CYP6Z8 ref [8] (S1 Text)
# CYP6M2 = test system: CYP6M2; set-up: method as in ref [5] (S1 Text); conditions: An. gambiae CYP6M2 ref [5] (S1 Text); cited from earlier work
# FANGCYP6P9a [10] = target: T2, FANGCYP6P9a
# Method: (§2) Reactions were performed in triplicates both for +NADPH (experimental tubes) and–NADPH (negative control). K m and V max were established from the plot of substrate concentrations against the initial velocities and fitting of the data to the Michaelis-Menten module using the least squares non-linear regression, as described in the GraphPad Prism 6.03 Software (GraphPad Inc., La Jolla, CA, USA).
# FANGCYP6P9b [11] = target: T4, FANGCYP6P9b
# Method: as §2
# BENCYP6P9b [12] = target: T1, BENCYP6P9b; test: Steady-state kinetics of pyrethroid metabolism; format: biochemical
# Method: as §2
# UGANCYP6P9b [13] = target: T3, UGANCYP6P9b; test: Steady-state kinetics of pyrethroid metabolism; format: biochemical
# Method: as §2
# BENCYP6P9a [14] = target: T5, BENCYP6P9a; test: Steady-state kinetics of pyrethroid metabolism; format: biochemical
# Method: as §2
# MALCYP6P9b [15] = target: T6, MALCYP6P9b; test: Steady-state kinetics of pyrethroid metabolism; format: biochemical
# Method: as §2
# [16] = test system: transgenic flies over-expressing MALCYP6P9a; conditions: 0.15% deltamethrin paper, 3 hrs
# Method: (§3) Primers used for this PCR are given in S8 Table. PCR conditions, cloning techniques, construction of transgenic flies and expression of candidate genes was conducted as described in previous studies, with more details provided in S1 Text. For control group, flies with the same background as the UAS transgenic lines but devoid of the UAS construct with the candidate gene were crossed with the driver Actin5C-GAL4 line to generate Actin5C-GAL4-null flies.
# (§4) These papers were then rolled and introduced into 45 cc plastic vials. The vials were then plugged with cotton wool soaked in 5% sucrose. 20–25 (2–4 days old, post-eclosion F1 females) were selected for the bioassays and introduced into the vials. Mortality plus knockdown was scored after 1 hr, 2 hrs, 3 hrs, 6 hrs, 12 hrs and 24 hrs post-exposure to the discriminating dose of the insecticides.
# [17] = test system: transgenic flies over-expressing FANGCYP6P9a; conditions: 0.15% deltamethrin paper, 3 hrs
# Method: as §3, §4
# [18] = test system: transgenic flies over-expressing MALCYP6P9b; conditions: 0.15% deltamethrin paper
# Method: as §3, §4
# [19] = test system: transgenic flies over-expressing FANGCYP6P9b; conditions: 0.15% deltamethrin paper
# Method: as §3, §4
smiles,measurement,setting,value
Cc1c(COC(=O)[C@@H]2[C@H](/C=C(\Cl)C(F)(F)F)C2(C)C)cccc1-c1ccccc1 (racemic) [bifenthrin],Percentage depletion,MALCYP6P9a,60.48±2.65 %
same,Percentage depletion,BENCYP6P9b [1],89.19±1.01 %
same,Percentage depletion,FANGCYP6P9a [2],16.6±5.41%
same,Percentage depletion,UGANCYP6P9b [3],88.8±1.61 %
same,Percentage depletion,FANGCYP6P9b [4],22.38±5.08%
same,Percentage depletion,BENCYP6P9a [5],51.02±0.75 %
same,Percentage depletion,MALCYP6P9b [6],more than 80%
same,Percentage depletion,MALCYP6P9b [6]; listed as Bifenthrin,81.6±0.25 %
same,Percentage depletion,UGANCYP6P9a,50.31±3.8 %
CC1(C)[C@H](C(=O)O[C@H](C#N)c2cccc(Oc3ccccc3)c2)[C@@H]1/C=C(\Cl)C(F)(F)F (racemic) [λ-cyhalothrin],Percentage depletion,MALCYP6P9a,75.41±1.72%
same,Percentage depletion,BENCYP6P9b [1],49.35±4.41 %
same,Percentage depletion,FANGCYP6P9a [2],15.46±4.43%
same,Percentage depletion,UGANCYP6P9b [3],78.76±1.31 %
same,Percentage depletion,FANGCYP6P9b [4],15.49±3.13%
same,Percentage depletion,BENCYP6P9a [5],52.45±1.74 %
same,Percentage depletion,UGANCYP6P9a,47.74±1.5%
"CCOc1ccc2c(C(F)(F)F)cc(=O)oc2c1 [7-EFC, 7-ethoxy-4-trifluoromethylcoumarin]","O-dealkylation activity, fold of UGANCYP6P9a",UGANCYP6P9b [7],17.9 fold
CCOc1ccc2ccc(=O)oc2c1 [7-ethoxycoumarin],increase of Kcat of O-dealkylation by Glu^318Asp substitution,CYP1A2 Glu^318Asp,13 fold
Clc1ccc(C(c2ccc(Cl)cc2)C(Cl)(Cl)Cl)cc1 [DDT],IC50,UGANCYP6P9b [8],much higher value
same,IC50,CYP6P9a/CYP6P9b,~10 µM
CNC(=O)Oc1cccc2c1OC(C)(C)O2 [bendiocarb],IC50,[9],> 25 µM
O=c1ccc2nc3ccc(OCc4ccccc4)cc3oc-2c1 [benzyloxyresorufin],Km,CYP6Z2; An. gambiae CYP6Z2-mediated de-benzylation ref [7] (S1 Text),~0.13 µM
same,Kcat,CYP6Z2; An. gambiae CYP6Z2 ref [7] (S1 Text),~ 1.5 min^-1
same,Kcat,CYP6Z8,0.00162 s⁻¹
same,Km,CYP6Z8; Aedes aegypti CYP6Z8-mediated de-benzylation ref [8] (S1 Text),~0.13 µM
CC1(C)[C@H](C(=O)O[C@H](C#N)c2cccc(Oc3ccccc3)c2)[C@@H]1C=C(Br)Br [deltamethrin],Percentage depletion,MALCYP6P9a,68.38±1.83 %
same,Percentage depletion,BENCYP6P9b [1],62.03±1.14 %
same,Percentage depletion,FANGCYP6P9a [2],18.11±2.15%
same,Percentage depletion,UGANCYP6P9b [3],62.53±4.04 %
same,Percentage depletion,FANGCYP6P9b [4],6.2±1.5%
same,Km,CYP6M2,2 µM
same,Percentage depletion,BENCYP6P9a [5],59.54±5.11 %
same,Percentage depletion,MALCYP6P9b [6],more than 80%
same,Percentage depletion,MALCYP6P9b [6]; listed as Deltamethrin,81.69±2.27 %
same,Kcat,FANGCYP6P9a [10],0.0812 ± 0.0343 s⁻¹
same,Kcat,FANGCYP6P9b [11],0.082 ± 0.0137 s⁻¹
same,Km,FANGCYP6P9b [11],19.5 ± 5.53 µM
same,Kcat,BENCYP6P9b [12],13.63±5.40^b min^-1
same,Kcat,UGANCYP6P9b [13],10.44±4.00^b min^-1
same,Kcat,BENCYP6P9a [14],8.78±2.62^a min^-1
same,Kcat,MALCYP6P9b [15],12.09±1.44^b min^-1
same,Km,MALCYP6P9b [15],9.9 ± 1.65 µM
same,mortality,[16],< 30%
same,mortality,[17],52%
same,mortality,[18]; 1 hr,1.5%
same,mortality,[18]; 2 hrs,7.5%
same,mortality,[18]; 3 hrs,12.5%
same,mortality,[18]; 6 hrs,16%
same,mortality,[18]; 12 hrs,21%
same,mortality,[18]; 24 hrs,41%
same,mortality,[19]; 1 hr,20%
same,mortality,[19]; 2 hrs,53%
same,mortality,[19]; 3 hrs,62%
same,mortality,[19]; 6 hrs,70%
same,mortality,[19]; 12 hrs,81%
same,mortality,[19]; 24 hrs,93%
same,Percentage depletion,UGANCYP6P9a,57.9±2.74 %
CCOc1ccc2nc3ccc(=O)cc-3oc2c1 [ethoxyresorufin],Kcat,CYP6Z8,0.0198 s⁻¹
CCOc1ccc(C(C)(C)COCc2cccc(Oc3ccccc3)c2)cc1 [etofenprox],Percentage depletion,MALCYP6P9a,46.04±1.26 %
same,Percentage depletion,BENCYP6P9b [1],37.15±4.15 %
same,Percentage depletion,FANGCYP6P9a [2],7.28±1.53%
same,Percentage depletion,UGANCYP6P9b [3],57.91±1.55 %
same,Percentage depletion,FANGCYP6P9b [4],16.88±3.06%
same,Percentage depletion,BENCYP6P9a [5],41.22±1.54 %
same,Percentage depletion,MALCYP6P9b [6],71.59±1.42 %
same,Percentage depletion,UGANCYP6P9a,42.55±1.03 %
CNC(=O)Oc1ccccc1OC(C)C [propoxur],IC50,[9],> 25 µM

# Source: publication PMC4627800, “Allelic Variation of Cytochrome P450s Drives Resistance to Bednet Insecticides in a Major Malaria Vector” (PLoS Genetics, 2015)
